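Each compound was tested at five concentrations against cells in 96-well plates for 48 hours. TGI is the concentration that stops growth completely.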
Assays:
Experiment in all cases: NCI tumour cell line growth inhibition, 48 h
SNB-78 CNS = system: SNB-78 CNS
OVCAR-8 ovarian = system: OVCAR-8 ovarian
UACC-257 melanoma = system: UACC-257 melanoma
IGROV1 ovarian = system: IGROV1 ovarian
COLO 205 colon = system: COLO 205 colon
KM20L2 colon = system: KM20L2 colon
K-562 leukemia = system: K-562 leukemia
M19-MEL melanoma = system: M19-MEL melanoma
HOP-62 NSCLC = system: HOP-62 NSCLC
SF-268 CNS = system: SF-268 CNS
EKVX NSCLC = system: EKVX NSCLC
NCI-H23 lung = system: NCI-H23 lung
MOLT-4 leukemia = system: MOLT-4 leukemia
SK-OV-3 ovarian = system: SK-OV-3 ovarian
SW-620 colon = system: SW-620 colon
KM12 colon = system: KM12 colon
OVCAR-4 ovarian = system: OVCAR-4 ovarian
HCC-2998 colon = system: HCC-2998 colon
NCI-H460 lung = system: NCI-H460 lung
SR leukemia = system: SR leukemia
SK-MEL-28 melanoma = system: SK-MEL-28 melanoma
OVCAR-3 ovarian = system: OVCAR-3 ovarian
A498 renal = system: A498 renal
CAKI-1 renal = system: CAKI-1 renal
CCRF-CEM leukemia = system: CCRF-CEM leukemia
U251 CNS = system: U251 CNS
RPMI-8226 leukemia = system: RPMI-8226 leukemia
DMS 273 small cell lung = system: DMS 273 small cell lung
HOP-92 NSCLC = system: HOP-92 NSCLC
NCI-H522 lung = system: NCI-H522 lung
DLD-1 colon = system: DLD-1 colon
HCT-116 colon = system: HCT-116 colon
786-0 renal = system: 786-0 renal
HT29 colon = system: HT29 colon
UACC-62 melanoma = system: UACC-62 melanoma
SK-MEL-2 melanoma = system: SK-MEL-2 melanoma
RXF-631 renal = system: RXF-631 renal
M14 melanoma = system: M14 melanoma
XF 498 CNS = system: XF 498 CNS
NCI-H226 lung = system: NCI-H226 lung
SNB-75 CNS = system: SNB-75 CNS
A549 NSCLC = system: A549 NSCLC
ACHN renal = system: ACHN renal
OVCAR-5 ovarian = system: OVCAR-5 ovarian
SN12C renal = system: SN12C renal
SNB-19 CNS = system: SNB-19 CNS
DMS 114 small cell lung = system: DMS 114 small cell lung
LXFL 529 NSCLC = system: LXFL 529 NSCLC
MALME-3M melanoma = system: MALME-3M melanoma
UO-31 renal = system: UO-31 renal
SK-MEL-5 melanoma = system: SK-MEL-5 melanoma
RXF 393 renal = system: RXF 393 renal
HL-60(TB) leukemia = system: HL-60(TB) leukemia
HOP-18 NSCLC = system: HOP-18 NSCLC
SF-539 CNS = system: SF-539 CNS
SF-295 CNS = system: SF-295 CNS
TK-10 renal = system: TK-10 renal
LOX IMVI melanoma = system: LOX IMVI melanoma
HCT-15 colon = system: HCT-15 colon
SN12K1 renal = system: SN12K1 renal
P388/ADR leukemia = system: P388/ADR leukemia
P388 leukemia = system: P388 leukemia

`COc1cc(/C=C\c2ccc(OC(C)=O)cc2)cc(OC)c1OC` was tested, and the TGI (SNB-78 CNS) was 84.1 µM, the TGI (OVCAR-8 ovarian) was > 100 µM and the TGI (UACC-257 melanoma) was > 100 µM. The TGI (IGROV1 ovarian) was > 100 µM, the TGI (COLO 205 colon) was 94.2 µM and the TGI (KM20L2 colon) was > 100 µM. For the same compound, the TGI (K-562 leukemia) was > 100 µM, the TGI (M19-MEL melanoma) was > 100 µM and the TGI (HOP-62 NSCLC) was > 100 µM. For the same compound, the TGI (SF-268 CNS) was > 100 µM, the TGI (EKVX NSCLC) was > 100 µM and the TGI (NCI-H23 lung) was 13.2 µM. For the same compound, the TGI (MOLT-4 leukemia) was > 100 µM, the TGI (SK-OV-3 ovarian) was > 100 µM and the TGI (SW-620 colon) was > 100 µM. For the same compound, the TGI (KM12 colon) was > 100 µM, the TGI (OVCAR-4 ovarian) was > 100 µM and the TGI (HCC-2998 colon) was > 100 µM. The TGI (NCI-H460 lung) was > 100 µM, the TGI (SR leukemia) was > 100 µM and the TGI (SK-MEL-28 melanoma) was 7.67 µM. The TGI (OVCAR-3 ovarian) was > 100 µM, the TGI (A498 renal) was 78.4 µM and the TGI (CAKI-1 renal) was > 100 µM. The TGI (CCRF-CEM leukemia) was > 100 µM, the TGI (U251 CNS) was > 100 µM and the TGI (RPMI-8226 leukemia) was > 100 µM. For the same compound, the TGI (DMS 273 small cell lung) was > 100 µM, the TGI (HOP-92 NSCLC) was > 100 µM and the TGI (NCI-H522 lung) was > 100 µM. For the same compound, the TGI (DLD-1 colon) was > 100 µM, the TGI (HCT-116 colon) was > 100 µM and the TGI (786-0 renal) was > 100 µM. For the same compound, the TGI (HT29 colon) was > 100 µM, the TGI (UACC-62 melanoma) was > 100 µM and the TGI (SK-MEL-2 melanoma) was > 100 µM. For the same compound, the TGI (RXF-631 renal) was > 100 µM, the TGI (M14 melanoma) was > 100 µM and the TGI (XF 498 CNS) was 82.9 µM. The TGI (NCI-H226 lung) was > 100 µM, the TGI (SNB-75 CNS) was 6.93 µM and the TGI (A549 NSCLC) was > 100 µM. For the same compound, the TGI (ACHN renal) was > 100 µM, the TGI (OVCAR-5 ovarian) was > 100 µM and the TGI (SN12C renal) was > 100 µM. For the same compound, the TGI (SNB-19 CNS) was > 100 µM, the TGI (DMS 114 small cell lung) was > 100 µM and the TGI (LXFL 529 NSCLC) was > 100 µM. For the same compound, the TGI (MALME-3M melanoma) was > 100 µM and the TGI (UO-31 renal) was 28.7 µM.

For `C/C(CCn1[nH]c(=O)ccc1=O)=N\Nc1ccc([N+](=O)[O-])cc1[N+](=O)[O-]`, the TGI (SNB-78 CNS) was > 100 µM, the TGI (SK-MEL-5 melanoma) was > 100 µM and the TGI (OVCAR-8 ovarian) was > 100 µM. The TGI (UACC-257 melanoma) was > 100 µM, the TGI (IGROV1 ovarian) was > 100 µM and the TGI (KM20L2 colon) was > 100 µM. For the same compound, the TGI (RXF 393 renal) was > 100 µM, the TGI (HL-60(TB) leukemia) was > 100 µM and the TGI (K-562 leukemia) was > 100 µM. The TGI (M19-MEL melanoma) was > 100 µM, the TGI (HOP-62 NSCLC) was > 100 µM and the TGI (SF-268 CNS) was > 100 µM. For the same compound, the TGI (HOP-18 NSCLC) was > 100 µM, the TGI (EKVX NSCLC) was > 100 µM and the TGI (NCI-H23 lung) was > 100 µM. For the same compound, the TGI (MOLT-4 leukemia) was > 100 µM, the TGI (SF-539 CNS) was > 100 µM and the TGI (SW-620 colon) was > 100 µM. The TGI (KM12 colon) was > 100 µM, the TGI (OVCAR-4 ovarian) was > 100 µM and the TGI (HCC-2998 colon) was > 100 µM. For the same compound, the TGI (NCI-H460 lung) was > 100 µM, the TGI (SR leukemia) was > 100 µM and the TGI (SK-MEL-28 melanoma) was > 100 µM. For the same compound, the TGI (OVCAR-3 ovarian) was > 100 µM, the TGI (A498 renal) was > 100 µM and the TGI (CAKI-1 renal) was > 100 µM. For the same compound, the TGI (CCRF-CEM leukemia) was > 100 µM, the TGI (RPMI-8226 leukemia) was > 100 µM and the TGI (DMS 273 small cell lung) was > 100 µM. For the same compound, the TGI (HOP-92 NSCLC) was > 100 µM, the TGI (DLD-1 colon) was > 100 µM and the TGI (HCT-116 colon) was > 100 µM. The TGI (786-0 renal) was > 100 µM, the TGI (HT29 colon) was > 100 µM and the TGI (UACC-62 melanoma) was > 100 µM. The TGI (SK-MEL-2 melanoma) was > 100 µM, the TGI (RXF-631 renal) was > 100 µM and the TGI (SF-295 CNS) was > 100 µM. The TGI (TK-10 renal) was > 100 µM, the TGI (M14 melanoma) was > 100 µM and the TGI (XF 498 CNS) was > 100 µM. The TGI (NCI-H226 lung) was > 100 µM, the TGI (LOX IMVI melanoma) was > 100 µM and the TGI (SNB-75 CNS) was > 100 µM. The TGI (A549 NSCLC) was > 100 µM, the TGI (ACHN renal) was > 100 µM and the TGI (OVCAR-5 ovarian) was > 100 µM. For the same compound, the TGI (SN12C renal) was > 100 µM, the TGI (SNB-19 CNS) was > 100 µM and the TGI (DMS 114 small cell lung) was > 100 µM. The TGI (HCT-15 colon) was > 100 µM, the TGI (LXFL 529 NSCLC) was > 100 µM and the TGI (MALME-3M melanoma) was > 100 µM. For the same compound, the TGI (UO-31 renal) was > 100 µM.

For `CCC(C)C1NC(=O)CNC(=O)C2Cc3c([nH]c4cc(O)ccc34)S(=O)CC(NC(=O)CNC1=O)C(=O)NC(CC(=O)O)C(=O)N1CC(O)CC1C(=O)NC(C(C)C(O)CO)C(=O)N2` (stereo not given), the TGI (SNB-78 CNS) was > 100 µM, the TGI (UACC-257 melanoma) was 6.73 µM and the TGI (KM20L2 colon) was > 100 µM. The TGI (M19-MEL melanoma) was 24.2 µM, the TGI (HOP-18 NSCLC) was > 88.9 µM and the TGI (NCI-H23 lung) was 5.81 µM. The TGI (SN12K1 renal) was > 100 µM, the TGI (P388/ADR leukemia) was 18.4 µM and the TGI (DMS 273 small cell lung) was 14.9 µM. The TGI (HOP-92 NSCLC) was 5.78 µM, the TGI (DLD-1 colon) was > 100 µM and the TGI (XF 498 CNS) was 5.88 µM. The TGI (NCI-H226 lung) was 8.08 µM, the TGI (DMS 114 small cell lung) was 3.78 µM and the TGI (P388 leukemia) was 14.9 µM.

— PubChem BioAssay (NCI)
